Assay results reported in PMC8795745, “A GSH/CB Dual-Controlled Self-Assembled Nanomedicine for High-Efficacy Doxorubicin-Resistant Breast Cancer Therapy” (Frontiers in Pharmacology, 2022).
Bridge positions count the residues as written; N and C are the ends. Square brackets hold non-standard residues; d marks the D form. Peptide text beside a SMILES is read from it. * marks the point of attachment. Acetyl(2-naphthyl) = O=C(Cc1ccc2ccccc2c1)*

Experiments:
MCF-7 cells [1] = type: cell-based
MCF-7 cells [2] = type: cell-based; remark: listed apart in the source
Procedure: (§1) MTT assay was performed as described previously.^[6^] Briefly, the cells (5 × 10^3 cells/well) were seeded in 96-well culture plates (Coring) and incubated overnight. Then cells were exposed to various concentrations of cyclic-1a and incubated at 37 °C for 72 h. After that, MTT stock solution (0.5 mg/mL) was added into each well and cultured for additional 4 h. The MTT treated cells were […] with 150 μL of DMSO. The absorbance in each individual well was measured by using a microplate spectrophotometer at […] (SpectraMax M2e, Molecular Devices Inc. USA).

MCF-7/DOX cells = assay: MTT assay, MCF-7/DOX cells; type: cell-based; conditions: Homo sapiens, MCF7-DOX, mean ± SD, n=3
Procedure: as §1

[3] = Body weight and histological examination of organs in tumor-bearing mice; type: in vivo, BALB/c nude mice; conditions: cyclic-1a 20 and 60 mg/kg
Procedure: Female BALB/c nude mice (6 weeks old) were purchased from the Experimental Animal Center of Yangzhou University. The experiments involving animals were approved by the Animal Ethics Committee of China Pharmaceutical University (Ethic approval number: 2020-07-003). In vivo anticancer activity assay was performed as described previously.^[9^] Briefly, MCF-7/DOX cells (200 μL, 1 × 10^7 cells) were implanted into the right mammary fat pad of nude mice. Once tumors grew to 80-100 mm^3, mice were randomly assigned into four groups and treated intraperitoneally with vehicle, cyclic-1a (20 mg/kg), cyclic-1a (60 mg/kg) or DOX (5 mg/kg) every 3 days for a total of six times. Tumor volume and body weight were measured every 3 days. Tumor volume was calculated using the formula (c × c × d)/2 (c, the smallest diameter; d, the largest diameter).
Immunohistochemical stains against Ki67 and cleaved caspase 3 were performed using immunohistochemistry kit (KeyGen, Nanjing, China) according to the manufacturer’s instructions. Mouse organs (heart, liver, spleen, lung and kidney) tissues were fixed in 4% paraformaldehyde at 4 °C for 48 h, and then embedded in paraffin wax, sectioned (5 µm) and processed for H&E staining. Inverted fluorescence microscope was used to photograph all sections.

CB enzyme (cathepsin B) = molecular target: T1, CB enzyme (cathepsin B) (Homo sapiens, UniProt P07858); assay: Cathepsin B conversion of linear-1a into linear-1b (LC-MS); type: biochemical; conditions: after GSH 8 mM for 12 h, then CB 1 U/mL, 37 °C, PBS pH 7.4; at 20 h; LC-MS peak area; mean, n=3
T1 construct: purchased Sigma-Aldrich (St. Louis, MO, USA)
Procedure: Molecular self-assembly was performed as described previously.^[1] Briefly, the cyclic-1a was diluted into the phosphate-buffered saline (PBS; pH 7.4) to a final concentration of 1600 µM and incubated at 37 °C. The GSH (8 mM) was then added to the above solution for 12 h at 37 °C to trigger the first step of self-assembly. Afterward, cathepsin B was added to the solution for 12 h at 37 °C to trigger the second step of self-assembly (1 U/mL).
2 mL of the sample prepared by part 3 were adding GSH (8 mM) for 12 h, and then added 1 U/mL of cathepsin B, 100 µL of each sample was collected at each time point and 100 µL methanol was added to terminate the reaction. The method of detection was similar to part 3.1.

**Q.** What does the source list for N=C(N)NCCC[C@H](NC(=O)CNC(=O)CNC(=O)[C@@H]1CSSC[C@H](NC(=O)Cc2ccc3ccccc3c2)C(=O)N[C@H](Cc2ccccc2)C(=O)N[C@H](Cc2ccccc2)C(=O)N[C@H](Cc2ccc(O)cc2)C(=O)N[C@H](CCCCN)C(=O)N1)C(=O)N[C@@H](CCCNC(=N)N)C(=O)NCC(=O)N[C@@H](CCCCN)C(=O)NCC(=O)NCC(=O)N[C@@H](Cc1c[nH]cn1)C(=O)N[C@@H](Cc1c[nH]cn1)C(=O)N[C@@H](Cc1c[nH]cn1)C(=O)N[C@@H](CCCNC(=N)N)C(=O)N[C@@H](CCCNC(=N)N)C(=O)NCC(=O)N[C@@H](CC(=O)O)C(=O)N[C@@H](CO)C(=O)O [cyclic-1a] ({Acetyl(2-naphthyl)}-C[dF][dF][dY][dK]CGGRRGKGGHHHRRGDS-OH; disulfide 1-6)?
**A.** cellular uptake ability, MCF-7 cells (MCF-7 cells [1]): strong cellular uptake ability; cytotoxicity to MCF-7 cells (MTT) (MCF-7 cells [2]): no obvious cytotoxicity

**Q.** Which results are given for COc1cccc2c1C(=O)c1c(O)c3c(c(O)c1C2=O)C[C@@](O)(C(=O)CO)C[C@@H]3O[C@H]1C[C@H](N)[C@H](O)[C@H](C)O1 [doxorubicin, Doxorubicin]?
**A.** IC50 (MCF-7/DOX cells): 83.3 ± 6.13 µM; body weight of mice ([3]; DOX 5 mg/kg, intraperitoneally every 3 days, six times, n=6): gradually increased throughout the experiments except for the DOX-treated group; pathological lesions in organs (H&E) ([3]; heart, liver, spleen, lung and kidney, DOX 5 mg/kg intraperitoneally): lesions of the heart and kidney were detected

**Q.** With N=C(N)NCCC[C@H](NC(=O)CNC(=O)CNC(=O)[C@H](CS)NC(=O)[C@@H](CCCCN)NC(=O)[C@@H](Cc1ccc(O)cc1)NC(=O)[C@@H](Cc1ccccc1)NC(=O)[C@@H](Cc1ccccc1)NC(=O)[C@H](CS)NC(=O)Cc1ccc2ccccc2c1)C(=O)N[C@@H](CCCNC(=N)N)C(=O)NCC(=O)N[C@@H](CCCCN)C(=O)NCC(=O)NCC(=O)N[C@@H](Cc1c[nH]cn1)C(=O)N[C@@H](Cc1c[nH]cn1)C(=O)N[C@@H](Cc1c[nH]cn1)C(=O)N[C@@H](CCCNC(=N)N)C(=O)N[C@@H](CCCNC(=N)N)C(=O)NCC(=O)N[C@@H](CC(=O)O)C(=O)N[C@@H](CO)C(=O)O [linear-1a] ({Acetyl(2-naphthyl)}-C[dF][dF][dY][dK]CGGRRGKGGHHHRRGDS-OH) as the molecule, how does the “linear-1a converted into linear-1b” value (CB enzyme (cathepsin B)) read?
**A.** more than 90%
